Our source for the microbial germs and microbial germs concentration values is US8889068B2, “Method for controlling microbial contamination, mineral suspensions obtained and uses thereof” (Omya International AG, priority 2005, dated 2014).

In the experiment the test system is bacteria/yeasts cocktail indicated in table 28. Briefly: Disinfection test on simulated wagon washing water with Ca(OH)2. Type of experiment: cell-based. As for the experimental part: In order to simulate wagon washing water, a buffered kitchen salt solution was used, comprising 3% by weight of a suspension of calcium carbonate, taken from example 1.
The Ca(OH)2 was dissolved in a buffered solution of sterile phosphate at 0.85% by weight (PBS) and was mixed after 24 hours' storage at 30° C. with the bacteria/yeasts cocktail indicated in table 28.
The samples were incubated once more for 24 hours at 30° C. and then removed from the plates.
The germs which had grown were examined under an optical microscope.
A cocktail of bacteria (in PBS), firstly, and a bacteria/yeasts cocktail in (PBS), secondly, were mixed with Ca(OH)2, stored, and then removed from their moulds.
Tables 29 and 30 indicate the OH^− ion concentration (mole/l) and the yeast germ concentration (number/ml) measured in the samples, after 24-hours' incubation, for different initial concentrations of Ca(OH)2.
Samples 9 and 10 of initial Ca(OH)2 concentration equal to 1000 ppm were then removed from their mould at 30° C. on to a bacterial medium called a PCA (Plate Count Agar).
After 48 hours' incubation, the samples are once again removed from their moulds on to the same medium of type PCA.
For a part of sample 9, named 9-2, the OH^− ion concentration was reduced to a value of 5×10^−7 mole/l by the addition of gaseous CO2. […]

Regarding `[Ca+2].[OH-].[OH-]` [Ca(OH)2], the microbial germs result (curative mode, initial Ca(OH)2 1000 ppm, after 24 hours) is given as “less than 10 number/ml”. The compound also displayed a microbial germs concentration (protective mode, initial Ca(OH)2 200 ppm, after 24 hours' incubation at 30° C.) of 1000 number/ml.
